This note sets out measurements from PubChem BioAssay (NCI).

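Briefly, cells in 96-well plates were exposed to five compound concentrations for 48 h, and endpoints were estimated by linear interpolation. GI50 = concentration required for 50% inhibition of growth. TGI: concentration producing complete growth inhibition.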 A value given as a limit tells only on which side of the number the result lay.

Test systems include HCT-116 colon; IGROV1 ovarian; 786-0 renal; OVCAR-5 ovarian; COLO 205 colon; M14 melanoma; SNB-75 CNS; SR leukemia; HL-60(TB) leukemia; HOP-62 NSCLC.
Holding throughout (test): NCI tumour cell line growth inhibition, 48 h

As for `COC(=O)/C=C\C1C(C(=O)OC)C2(C(=O)OC)CCC1(C(=O)OC)N2` (centres undefined), the TGI is 27.6 µM in the test on HCT-116 colon; over 58.1 µM with IGROV1 ovarian; 28.6 µM in the test with 786-0 renal; 34.5 µM with OVCAR-5 ovarian; 13.5 µM in the test on COLO 205 colon; 28.8 µM in the test on M14 melanoma. The TGI was determined as 32.9 µM with SNB-75 CNS, 16.7 µM in the test on SR leukemia, 6.47 µM in the test with HL-60(TB) leukemia and 34.1 µM with HOP-62 NSCLC.

`COc1cc(C)c(N(C)C(=O)CN(C)C)cc1Nc1nc(Nc2cccc(F)c2C(N)=O)c2cc[nH]c2n1`: the GI50 was 15.7 µM with HCT-116 colon; over 25 µM in the test on IGROV1 ovarian; over 25 µM in the test on 786-0 renal; 1.41 µM in the test on OVCAR-5 ovarian; 5.63 µM in the test on COLO 205 colon; over 25 µM in the test with M14 melanoma. For the same compound, the GI50 was over 25 µM with SNB-75 CNS, 7.85 µM with SR leukemia, 3.2 µM in the test with HL-60(TB) leukemia and over 25 µM in the test on HOP-62 NSCLC. Besides, the TGI in the test with HCT-116 colon, in the test with IGROV1 ovarian, with 786-0 renal, in the test on OVCAR-5 ovarian, in the test on COLO 205 colon and in the test on M14 melanoma was over 25 µM throughout. Further, the TGI with SNB-75 CNS is over 25 µM; in the test with SR leukemia, over 23.3 µM; in the test on HL-60(TB) leukemia, over 25 µM; with HOP-62 NSCLC, over 25 µM.

Regarding `CCCCCCCCCCSS(=O)(=O)c1ccc(C)cc1`, the TGI in the test with HCT-116 colon was determined as 26.8 µM; with IGROV1 ovarian, 33.7 µM; with 786-0 renal, 17.8 µM; in the test with OVCAR-5 ovarian, 30.6 µM; in the test on COLO 205 colon it was 33.6 µM; in the test on M14 melanoma it was 25 µM. The TGI is 5.22 µM with SNB-75 CNS, 27.8 µM in the test on SR leukemia, 11.6 µM in the test with HL-60(TB) leukemia and 40.1 µM with HOP-62 NSCLC.

As to `COc1cccc2c1C(=O)c1c(O)c3c(c(O)c1C2=O)C[C@@](O)(C(=O)COC(=O)c1cccnc1)C[C@@H]3OC1CC(N)C(O)C(C)O1` (some centres undefined), the GI50 with HCT-116 colon is 0.0475 µM; in the test with IGROV1 ovarian it was 0.121 µM; with 786-0 renal, 0.14 µM; in the test with OVCAR-5 ovarian it was 0.335 µM; with COLO 205 colon, 0.168 µM; in the test on M14 melanoma, 0.17 µM. Moreover, the GI50 is 0.084 µM with SNB-75 CNS, 0.0173 µM in the test on SR leukemia, 0.146 µM with HL-60(TB) leukemia and 0.124 µM in the test with HOP-62 NSCLC. The TGI worked out at 0.492 µM in the test on HCT-116 colon; 3.79 µM with IGROV1 ovarian; 1.25 µM in the test with 786-0 renal; 4.53 µM in the test on OVCAR-5 ovarian; 1.01 µM in the test with COLO 205 colon; 1.06 µM with M14 melanoma. In addition, the TGI with SNB-75 CNS was 0.534 µM; in the test with SR leukemia it was 2.4 µM; in the test on HL-60(TB) leukemia, 1.64 µM; with HOP-62 NSCLC, 1.28 µM.

Turning to `CCCC(=O)C(CC)/C(CCC(=O)N(Cc1ccccc1)Cc1ccccc1)=N/NC(=O)C[N+](C)(C)C` (centres undefined), the TGI with HCT-116 colon, in the test on IGROV1 ovarian, in the test with 786-0 renal, in the test with OVCAR-5 ovarian, in the test with COLO 205 colon and in the test on M14 melanoma was over 100 µM each time. In addition, the TGI with SNB-75 CNS, in the test with SR leukemia, with HL-60(TB) leukemia and with HOP-62 NSCLC was over 100 µM throughout.

Turning to `CCC1(c2ccncc2)CCC(=O)NC1=O` (centres undefined), the TGI with HCT-116 colon, in the test on IGROV1 ovarian, in the test on 786-0 renal, with OVCAR-5 ovarian, in the test with COLO 205 colon and in the test on M14 melanoma was over 100 µM in each case. For the same compound, the TGI with SNB-75 CNS, in the test with SR leukemia, with HL-60(TB) leukemia and in the test on HOP-62 NSCLC was over 100 µM in each case.

Regarding `COc1ccccc1NC(=O)N/C(N)=N/c1nc2ccccc2s1`, the GI50 was 0.0497 µM in the test with HCT-116 colon; 0.0884 µM with IGROV1 ovarian; 0.288 µM in the test with 786-0 renal; 0.42 µM in the test on OVCAR-5 ovarian; 0.254 µM in the test with COLO 205 colon; 0.0788 µM in the test on M14 melanoma. For the same compound, the GI50 in the test with SNB-75 CNS was 0.0556 µM; with SR leukemia, 0.0228 µM; with HL-60(TB) leukemia, 0.0827 µM; in the test with HOP-62 NSCLC, 0.111 µM. Also, the TGI in the test with HCT-116 colon, with IGROV1 ovarian, in the test with 786-0 renal, in the test on OVCAR-5 ovarian, with COLO 205 colon and in the test on M14 melanoma was over 100 µM in each case. Besides, the TGI in the test on SR leukemia was over 100 µM; in the test on HL-60(TB) leukemia it was 0.436 µM; in the test with HOP-62 NSCLC, over 100 µM.

`S=C1SC2(CCCCCC2)NC2=C1CCCCC2`: the TGI in the test with HCT-116 colon is over 100 µM; in the test on IGROV1 ovarian, over 100 µM; with 786-0 renal, over 100 µM; with OVCAR-5 ovarian, over 100 µM; in the test with COLO 205 colon it was 35.8 µM; with M14 melanoma it was over 100 µM. Also, the TGI with SNB-75 CNS was 81.8 µM; in the test on SR leukemia it was 80.4 µM; in the test with HL-60(TB) leukemia, 38.5 µM; in the test with HOP-62 NSCLC it was over 100 µM.

On to `COc1ccc(S(=O)(=O)N2CCCCC2)cc1NC(=O)c1[nH]c(C)c2c1CCCCC2=O`, for which the GI50 was 1.32 µM in the test with HCT-116 colon; 1.45 µM with IGROV1 ovarian; 1.06 µM in the test with 786-0 renal; 2.53 µM in the test on OVCAR-5 ovarian; 1.71 µM in the test with COLO 205 colon; 1.49 µM in the test on M14 melanoma. Further, the GI50 in the test on SNB-75 CNS is 0.141 µM; with SR leukemia, 0.762 µM; with HL-60(TB) leukemia, 0.444 µM; in the test on HOP-62 NSCLC, 0.904 µM. In addition, the TGI in the test on HCT-116 colon is 19.3 µM; in the test with IGROV1 ovarian, 44.3 µM; in the test with 786-0 renal, over 100 µM; in the test on OVCAR-5 ovarian, over 100 µM; in the test on COLO 205 colon, 26.4 µM; in the test on M14 melanoma, over 100 µM. For the same compound, the TGI in the test with SNB-75 CNS was 3.46 µM; with SR leukemia, over 100 µM; in the test on HL-60(TB) leukemia, 6.86 µM; in the test on HOP-62 NSCLC, over 100 µM.

Regarding `c1ccc2c(c1)[Se]c1ccccc1[Se]2`, the TGI is 72.4 µM in the test with HCT-116 colon; over 100 µM in the test on IGROV1 ovarian; over 100 µM in the test on 786-0 renal; over 100 µM with OVCAR-5 ovarian; over 100 µM with COLO 205 colon; over 100 µM in the test with M14 melanoma. Further, the TGI with SNB-75 CNS is 64.9 µM; in the test on SR leukemia, over 100 µM; in the test on HL-60(TB) leukemia, over 100 µM; in the test on HOP-62 NSCLC it was over 100 µM.
